Data published in BindingDB's records for doi:10.1021/jm200288r (National Institute On Drug Abuse-Intramural Research Program, 2011).

Experiment: Antagonist activity at human dopamine D2 receptor expressed in CHOp cells assessed as inhibition of quinpirole-induced mitogenesis

COc1ccc2oc(C(=O)NCCC(F)CN3CCN(c4cccc(Cl)c4Cl)CC3)cc2c1 (configuration not stated) [N-(4-(4-(2,3-Dichlorophenyl)piperazin-1-yl)-3-fluorobutyl)-5-methoxybenzofuran-2-carboxamide]
IC50: 1600 nM

COc1ccccc1N1CCN(CC(F)CCNC(=O)c2cc3ccccc3s2)CC1 (configuration not stated) [N-(3-Fluoro-4-(4-(2-methoxyphenyl)piperazin-1-yl)butyl)-benzo[b]thiophene-2-carboxamide]
IC50: 421 nM
